Reference: patent US12390446B2 (RESEARCH TRIANGLE INSTITUTE, priority 2017, dated 2025)
Like-named read-outs stand apart in the source and are kept apart here.

Assays:
Assay type in all cases: cell-based
[1] = target: T1, NPFF2 receptor (human NPFFR2 in CHO-RD-HGA16 cells) (Homo sapiens, UniProt Q9Y5X5); experiment: Calcium mobilization functional Ke assay, NPFF2
T1 construct: expressed in transfected cells

[2] = target: T2, NPFF1 receptor (human NPFFR1 in CHO-RD-HGA16 cells) (Homo sapiens, UniProt Q9GZQ6); experiment: Calcium mobilization functional Ke assay, NPFF1; conditions: for preference / selectivity for NPFF1 over NPFF2: from calcium mobilization Ke values
T2 construct: expressed in transfected cells

[3] = target: NPFF1 receptor (human NPFFR1-CHO cells) (Homo sapiens, UniProt Q9GZQ6); experiment: Lance cAMP functional Ke assay, NPFF1; conditions: Table 5
Procedure: (§1) Kinetic solubility and bidirectional MDCK-MDR1 permeability assays of the compounds were performed by Paraza Pharma Inc. (Montreal, Canada) according to their standard protocols.
(§2) cAMP assay. Stable human NPFFR1-CHO (ES-491-C) and NPFFR2-CHO (ES-490-C) cell lines were purchased from PerkinElmer and used with the Lance@ Ultra kit (TRF0262) to detect cAMP accumulation in low volume 96-well plates. Stimulation buffer containing 1× HBSS, 5 mM HEPES, 0.1% BSA stabilizer, and 0.5 mM IBMX was prepared and titrated to 7.4 at room temperature.
(§3) A single concentration of each test compound was prepared at 4× the desired final concentration in 2% DMSO/stimulation buffer and 5 μL was added to the assay plate.
(§4) Cells were lifted with versene and spun at 270 g for 10 minutes. The cell pellet was resuspended in stimulation buffer and 4,000 cells (10 μL) were added to each well. After incubating for 30 min at RT, Eu-cAMP tracer and uLIGHT-anti-cAMP working solutions were added per the manufacturer's instructions. After incubation at RT for 1 hour, the TR-FRET signal (ex 337 nm) was read on a CLARIOstar multimode plate reader (BMG Biotech, Cary NC).
(§5) Fluorescence values at 665 nm were plotted against the log of compound concentration using a nonlinear regression analysis to generate EC50 values (GraphPad Prism, GraphPad Software, Inc., San Diego CA). Ke values were calculated using the same equation as described in the calcium mobilization methods.

[4] = target: NPFF2 receptor (human NPFFR2-CHO cells) (Homo sapiens, UniProt Q9Y5X5); experiment: Lance cAMP functional Ke assay, NPFF2; conditions: Table 5
Procedure: as §1, §2, §3, §4, §5

[5] = Table 3, mean ± SEM, read-out: NPFF2 Ke
[6] = Table 3, mean ± SEM, read-out: NPFF1 Ke
[7] = Table 4, mean ± SEM, read-out: NPFF2 Ke
[8] = Table 4, mean ± SEM, read-out: NPFF1 Ke

T2 sequence (Q9GZQ6 whole entry): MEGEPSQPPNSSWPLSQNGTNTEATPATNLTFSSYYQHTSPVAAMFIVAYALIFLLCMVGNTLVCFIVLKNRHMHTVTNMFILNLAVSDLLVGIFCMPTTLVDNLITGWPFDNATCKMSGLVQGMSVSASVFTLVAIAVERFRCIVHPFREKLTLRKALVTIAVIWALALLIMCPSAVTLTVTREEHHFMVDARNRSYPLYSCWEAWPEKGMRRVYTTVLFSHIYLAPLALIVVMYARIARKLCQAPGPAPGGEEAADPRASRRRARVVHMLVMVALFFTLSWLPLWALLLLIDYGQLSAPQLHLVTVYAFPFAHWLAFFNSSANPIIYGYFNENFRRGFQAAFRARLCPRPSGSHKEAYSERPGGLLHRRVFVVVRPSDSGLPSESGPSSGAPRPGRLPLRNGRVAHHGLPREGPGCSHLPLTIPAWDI
T1 sequence (Q9Y5X5 whole entry): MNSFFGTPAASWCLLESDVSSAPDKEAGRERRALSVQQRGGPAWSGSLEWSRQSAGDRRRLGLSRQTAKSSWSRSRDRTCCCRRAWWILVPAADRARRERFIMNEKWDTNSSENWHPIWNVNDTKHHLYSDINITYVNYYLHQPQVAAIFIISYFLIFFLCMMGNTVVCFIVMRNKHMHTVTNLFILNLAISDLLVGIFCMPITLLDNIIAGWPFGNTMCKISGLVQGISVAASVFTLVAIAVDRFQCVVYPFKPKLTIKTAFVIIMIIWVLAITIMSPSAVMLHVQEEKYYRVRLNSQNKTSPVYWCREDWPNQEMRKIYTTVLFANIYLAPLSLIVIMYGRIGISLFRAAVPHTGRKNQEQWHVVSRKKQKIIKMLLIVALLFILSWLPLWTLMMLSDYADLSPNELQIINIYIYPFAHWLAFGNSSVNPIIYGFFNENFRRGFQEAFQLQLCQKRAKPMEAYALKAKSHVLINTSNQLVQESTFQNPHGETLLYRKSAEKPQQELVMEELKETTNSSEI
Chain of NPFF1 receptor (human NPFFR1-CHO cells) (Q9GZQ6 whole entry): as the sequence (Q9GZQ6 whole entry) above
Chain of NPFF2 receptor (human NPFFR2-CHO cells) (Q9Y5X5 whole entry): as the sequence (Q9Y5X5 whole entry) above

Row | Compound | Kb [1, 5] [nM] | Kb [2, 6] [nM] | Kb [1, 7] [nM] | Kb [2, 8] [nM] | other results
1 | CCCCCCN[C@H]1C[C@@H](C(=O)NCCc2ccc([N+](=O)[O-])cc2)N(Cc2ccccc2Cl)C1 [Compound 55, (2S,4S)-1-[(2-Chlorophenyl)methyl]-4-(hexylamino)-N-[2-(4-nitrophenyl)ethyl]pyrrolidine-2-carboxamide] | 4470 | 2320 |  |  | 
2 | O=C(NCCc1ccc([N+](=O)[O-])cc1)[C@@H]1C[C@H](NCc2ccccc2)CN1Cc1ccccc1Cl [Compound 56, (2S,4S)-4-(Benzylamino)-1-[(2-chlorophenyl)methyl]-N-[2-(4-nitrophenyl)ethyl]pyrrolidine-2-carboxamide] | 1400 | 1230 |  |  | 
3 | O=C(NCCc1ccc([N+](=O)[O-])cc1)[C@@H]1C[C@H](NCCc2ccccc2)CN1Cc1ccccc1Cl [Compound 58] | 1130 | 1150 |  |  | 
4 | COc1cccc(CN[C@H]2C[C@@H](C(=O)NCCc3ccc([N+](=O)[O-])cc3)N(Cc3ccccc3Cl)C2)c1 [Compound 59, (2S,4S)-1-[(2-Chlorophenyl)methyl]-4-{[(3-methoxyphenyl)methyl]amino}-N-[2-(4-nitrophenyl)ethyl]pyrrolidine-2-carboxamide] | 2820 | 1390 |  |  | 
5 | COc1ccc(CN[C@H]2C[C@@H](C(=O)NCCc3ccc([N+](=O)[O-])cc3)N(Cc3ccccc3Cl)C2)cc1OC [Compound 60, (2S,4S)-1-[(2-Chlorophenyl)methyl]-4-{[(3,4-dimethoxyphenyl)methyl]amino}-N-[2-(4-nitrophenyl)ethyl]pyrrolidine-2-carboxamide] | 3150 | 1920 |  |  | 
6 | O=C(NCCc1ccc([N+](=O)[O-])cc1)[C@@H]1C[C@H](NCc2ccc(O)cc2)CN1Cc1ccccc1Cl [Compound 61, (2S,4S)-1-[(2-Chlorophenyl)methyl]-4-{[(4-hydroxyphenyl)methyl]amino}-N-[2-(4-nitrophenyl)ethyl]pyrrolidine-2-carboxamide] | 6370 | 4790 |  |  | 
7 | O=C(NCCc1ccc([N+](=O)[O-])cc1)[C@@H]1C[C@H](NCc2ccc(C(F)(F)F)cc2)CN1Cc1ccccc1Cl [Compound 62, (2S,4S)-1-[(2-Chlorophenyl)methyl]-N-[2-(4-nitrophenyl)ethyl]-4-({[4-(trifluoromethyl)phenyl]methyl}amino)pyrrolidine-2-carboxamide] | 6380 | 2060 |  |  | 
8 | O=C(NCCc1ccc([N+](=O)[O-])cc1)[C@@H]1C[C@H](NCc2ccc(Cl)cc2)CN1Cc1ccccc1Cl [Compound 63, (2S,4S)-1-[(2-Chlorophenyl)methyl]-4-{[(4-chlorophenyl)methyl]amino}-N-[2-(4-nitrophenyl)ethyl]pyrrolidine-2-carboxamide] | 1860 | 680 ± 180 |  |  | Kb [3]: 1550 nM; Kb [4]: 1760 nM; Kb ([2]; Table 5, read-out: Calcium mobilization assay Ke NPFF1): 510 ± 180 nM
9 | O=C(NCCc1ccc([N+](=O)[O-])cc1)[C@@H]1C[C@H](NCc2ccc(F)cc2)CN1Cc1ccccc1Cl [Compound 64, (2S,4S)-1-[(2-Chlorophenyl)methyl]-4-{[(4-fluorophenyl)methyl]amino}-N-[2-(4-nitrophenyl)ethyl]pyrrolidine-2-carboxamide] | > 10000 | 960 ± 690 |  |  | Kb [3]: 1440 nM; Kb ([1]; Table 5, read-out: Calcium mobilization assay Ke NPFF2): > 10000 nM; Kb [4]: 960 nM; preference / selectivity for NPFF1 over NPFF2 [2]: more than 10 fold
10 | CCCCCCN1C[C@@H](NCc2ccc(OC)cc2)C[C@H]1C(=O)NCCc1ccccc1 [Compound 74, (2S,4S)-1-Hexyl-4-{[(4-methoxyphenyl)methyl]amino}-N-(2-phenylethyl)pyrrolidine-2-carboxamide] |  |  | 7100 | 1450 | 
11 | COc1ccc(CN[C@H]2C[C@@H](C(=O)NCCc3ccccc3)N(CC3CCCCC3)C2)cc1 [Compound 75, (2S,4S)-1-(Cyclohexylmethyl)-4-{[(4-methoxyphenyl)methyl]amino}-N-(2-phenylethyl) pyrrolidine-2-carboxamide] |  |  |  |  | NPFF2 Ke ([1]; Table 4, mean ± SEM): 3,640 ± 830 nM; NPFF1 Ke ([2]; Table 4, mean ± SEM): 650 ± 70 nM
12 | COc1ccc(CN[C@H]2C[C@@H](C(=O)NCCc3ccccc3)N(Cc3ccccc3)C2)cc1 [Compound 76, (2S,4S)-1-Benzyl-4-{[(4-methoxyphenyl)methyl]amino}-N-(2-phenylethyl)pyrrolidine-2-carboxamide] |  |  | > 10000 | 1270 | 
13 | COc1ccc(CN[C@H]2C[C@@H](C(=O)NCCc3ccccc3)N(Cc3cccc(Cl)c3)C2)cc1 [Compound 77, (2S,4S)-1-[(3-Chlorophenyl)methyl]-4-{[(4-methoxyphenyl)methyl]amino}-N-(2-phenylethyl)pyrrolidine-2-carboxamide] |  |  | 4100 | 580 ± 50 | preference / selectivity for NPFF1 over NPFF2 [2]: > 10 fold
14 | COc1ccc(CN[C@H]2C[C@@H](C(=O)NCCc3ccccc3)N(Cc3ccc(Cl)cc3)C2)cc1 [Compound 78, (2S,4S)-1-[(4-Chlorophenyl)methyl]-4-{[(4-methoxyphenyl)methyl]amino}-N-(2-phenylethyl)pyrrolidine-2-carboxamide] |  |  | 4850 | 2150 | 
15 | COc1ccc(CN[C@H]2C[C@@H](C(=O)NCCc3ccccc3)N(Cc3ccccc3OC)C2)cc1 [Compound 79, (2S,4S)-1-[(2-Methoxyphenyl)methyl]-4-{[(4-methoxyphenyl)methyl]amino}-N-(2-phenylethyl)pyrrolidine-2-carboxamide] |  |  | 5110 | 1230 | 
16 | COc1ccc(CN[C@H]2C[C@@H](C(=O)NCCc3ccccc3)N(Cc3cccc(OC)c3)C2)cc1 [Compound 80, (2S,4S)-1-[(3-Methoxyphenyl)methyl]-4-{[(4-methoxyphenyl)methyl]amino}-N-(2-phenylethyl)pyrrolidine-2-carboxamide] |  |  | > 10000 | 2460 | 
17 | COc1ccc(CN[C@H]2C[C@@H](C(=O)NCCc3ccccc3)N(Cc3ccc(OC)c(OC)c3)C2)cc1 [Compound 81, (2S,4S)-1-[(3,4-Dimethoxyphenyl)methyl]-4-{[(4-methoxyphenyl)methyl]amino}-N-(2-phenylethyl)pyrrolidine-2-carboxamide] |  |  | 5360 | 9020 | 
18 | COc1ccc(CN[C@H]2C[C@@H](C(=O)NCCc3ccccc3)N(Cc3ccccc3C)C2)cc1 [Compound 82, (2S,4S)-4-{[(4-Methoxyphenyl)methyl]amino}-1-[(2-methylphenyl)methyl]-N-(2-phenylethyl)pyrrolidine-2-carboxamide] |  |  | 3940 | 490 ± 70 | 
19 | COc1ccc(CN[C@H]2C[C@@H](C(=O)NCCc3ccccc3)N(Cc3ccc(C)cc3)C2)cc1 [Compound 83, (2S,4S)-4-{[(4-Methoxyphenyl)methyl]amino}-1-[(4-methylphenyl)methyl]-N-(2-phenylethyl)pyrrolidine-2-carboxamide] |  |  |  |  | Kb ([1]; read-out: NPFF2 Ke): > 10000 nM; Kb ([2]; read-out: NPFF1 Ke): 1320 nM
20 | COc1ccc(CN[C@H]2C[C@@H](C(=O)NCCc3ccccc3)N(Cc3ccc(O)cc3)C2)cc1 [Compound 84, (2S,4S)-1-[(4-Hydroxyphenyl)methyl]-4-{[(4-methoxyphenyl)methyl]amino}-N-(2-phenylethyl)pyrrolidine-2-carboxamide] |  |  | > 10000 | > 10000 | 
21 | COc1ccc(CN[C@H]2C[C@@H](C(=O)NCCc3ccccc3)N(Cc3ccc(N(C)C)cc3)C2)cc1 [Compound 85, (2S,4S)-1-{[4-(Dimethylamino)phenyl]methyl}-4-{[(4-methoxyphenyl)methyl]amino}-N-(2-phenylethyl)pyrrolidine-2-carboxamide] |  |  | > 10000 | 3510 | 
22 | COc1ccc(CN[C@H]2C[C@@H](C(=O)NCCc3ccccc3)N(Cc3ccc(C#N)cc3)C2)cc1 [Compound 86, (2S,4S)-1-[(4-Cyanophenyl)methyl]-4-{[(4-methoxyphenyl)methyl]amino}-N-(2-phenylethyl)pyrrolidine-2-carboxamide] |  |  | > 10000 | 3830 | 
23 | COc1ccc(CN[C@H]2C[C@@H](C(=O)NCCc3ccccc3)N(Cc3ccc4ccccc4c3)C2)cc1 [Compound 87, (2S,4S)-4-{[(4-Methoxyphenyl)methyl]amino}-1-(naphthalen-2-ylmethyl)-N-(2-phenylethyl)pyrrolidine-2-carboxamide] |  |  | 7220 | 1720 | 
24 | COc1ccc(CN[C@H]2C[C@@H](C(=O)NCCc3ccccc3)N(Cc3ccc4c(c3)OCO4)C2)cc1 [Compound 88, (2S,4S)-1-(2H-1,3-Benzodioxol-5-ylmethyl)-4-{[(4-methoxyphenyl)methyl]amino}-N-(2-phenylethyl)pyrrolidine-2-carboxamide] |  |  | > 10000 | 1860 | 
